How the values were obtained:
caALK3 = molecular target: T1, caALK3 (Homo sapiens, UniProt P36894, Q233D); test: Luciferase reporter assay constitutively active ALK3; conditions: read-out: Cell Based Assay caALK3 IC50
T1 construct: expressed in transfected cells; host or cells: C2C12 BRE-Luc cells infected with adenovirus (MOI 100)
From the text: C2Cl2 […] cells stably transfected with BMP responsive element from the Id promoter fused to luciferase reporter gene (BRE-Luc) were generously provided by Dr. Peter ten Dijke (Leiden University Medical Center, NL) following the methods described by Zilberberg et al., BMC cell biology 2007, 8, 41-50. Human embryonic kidney 293T cells stably transfected with the TGF-β responsive element from the PAI-1 promoter fused to luciferase reporter gene (CAGA-Luc) were generously provided by Dr. Howard Weiner (Brigham and Women's Hospital, Boston, Mass.) following the methods described by Oida et al., PloS one 2011, 6, e18365. C2Cl2 Bre-Luc and 293T CAGA-Luc cells were seeded in DMEM supplemented with 2% FBS at 20,000 cells per well in tissue culture treated 96-well plates (Costar® 3610; Corning). The cells were incubated for 1 h (37° C. and 10% CO2) and allowed to settle and attach. Compounds of interest or DMSO were diluted in DMEM and added at final compound concentrations of 1 nM to 10 μM. Cells were then incubated for 30 min. Adenovirus expressing constitutively active BMP and TGF-β type I receptors (Ad.caALK1-5), generously provided by Dr. Akiko Hata (University of to California at San Francisco), were added to achieve a multiplicity of infection (MOI) of 100. Plates were incubated overnight at 37° C. Cell viability was assayed with an MIT (3-(4,5-dimethylthiazol-2-yl)-2,5-diphenyl tetrazolium bromide) colorimetric assay (Promega) per the manufacturer's instructions. Media was discarded, and firefly luciferase activity was measured (Promega) according to manufacturer's protocol. Light output was measured using a Spectramax L luminometer (Molecular Devices) with an integration time of one second per well. Data was normalized to 100% of incremental BRE-Luc activity due to adenoviruses specifying caALK1, 2, or 3, or the incremental CAGA-Luc activity due to adenoviruses specifying caALK4 or 5.

PAK5 = PAK5 (Homo sapiens, UniProt Q9P286); test: Kinome profiling PAK5; format: biochemical; conditions: read-out: Inhibitory activity PAK5; for inhibition at 0.1 µM: 100 nM
Method: (§1) . The kinome-wide selectivity was determined following the methods previously reported by Mohedas et al., ACS Chem Biol 2013, 8, 1291-1302 and Sanvitale et al., PLoS One 2013, 8, e62721.

DYRK1A = DYRK1A (Homo sapiens, UniProt Q13627); test: Kinome profiling DYRK1A; format: biochemical; conditions: read-out: Inhibitory activity DYRK1A; for inhibition at 0.1 µM: 100 nM
Method: as §1

PKC-γ = PKC-γ (Homo sapiens, UniProt P05129); test: Kinome profiling PKC-γ; format: biochemical; conditions: read-out: Inhibitory activity PKC-γ; for inhibition at 0.1 µM: 100 nM
Method: as §1

CDK4/cyclinD = CDK4/cyclinD (Homo sapiens, UniProt P11802); test: Kinome profiling CDK4/cyclinD; format: biochemical; conditions: read-out: Inhibitory activity CDK4/cyclinD; for inhibition at 0.1 µM: 100 nM
Method: as §1

PDK1 = molecular target: T2, PDK1 (Homo sapiens, UniProt O15530); test: Kinome profiling PDK1; format: biochemical; conditions: read-out: Inhibitory activity PDK1; for inhibition at 0.1 µM: 100 nM
T2 sequence (O15530 1-556): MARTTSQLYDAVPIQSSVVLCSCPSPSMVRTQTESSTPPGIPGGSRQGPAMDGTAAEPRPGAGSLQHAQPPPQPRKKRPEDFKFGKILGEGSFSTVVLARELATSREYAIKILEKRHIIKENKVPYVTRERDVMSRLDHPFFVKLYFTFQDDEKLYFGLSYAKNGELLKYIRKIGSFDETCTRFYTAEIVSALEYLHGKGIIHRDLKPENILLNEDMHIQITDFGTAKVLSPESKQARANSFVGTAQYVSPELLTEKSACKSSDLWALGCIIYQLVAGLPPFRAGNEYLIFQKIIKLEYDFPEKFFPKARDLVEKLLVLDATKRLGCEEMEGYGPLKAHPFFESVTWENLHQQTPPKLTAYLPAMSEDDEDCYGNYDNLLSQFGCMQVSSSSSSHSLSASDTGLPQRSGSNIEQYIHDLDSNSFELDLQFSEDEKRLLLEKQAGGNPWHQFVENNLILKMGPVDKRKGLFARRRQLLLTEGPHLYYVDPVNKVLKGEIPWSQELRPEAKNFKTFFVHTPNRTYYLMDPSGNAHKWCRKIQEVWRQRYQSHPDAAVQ
Method: as §1

AXL = molecular target: T3, AXL (Homo sapiens, UniProt P30530); test: Kinome profiling AXL; format: biochemical; conditions: read-out: Inhibitory activity AXL; for inhibition at 0.1 µM: 100 nM
T3 sequence (P30530 26-894): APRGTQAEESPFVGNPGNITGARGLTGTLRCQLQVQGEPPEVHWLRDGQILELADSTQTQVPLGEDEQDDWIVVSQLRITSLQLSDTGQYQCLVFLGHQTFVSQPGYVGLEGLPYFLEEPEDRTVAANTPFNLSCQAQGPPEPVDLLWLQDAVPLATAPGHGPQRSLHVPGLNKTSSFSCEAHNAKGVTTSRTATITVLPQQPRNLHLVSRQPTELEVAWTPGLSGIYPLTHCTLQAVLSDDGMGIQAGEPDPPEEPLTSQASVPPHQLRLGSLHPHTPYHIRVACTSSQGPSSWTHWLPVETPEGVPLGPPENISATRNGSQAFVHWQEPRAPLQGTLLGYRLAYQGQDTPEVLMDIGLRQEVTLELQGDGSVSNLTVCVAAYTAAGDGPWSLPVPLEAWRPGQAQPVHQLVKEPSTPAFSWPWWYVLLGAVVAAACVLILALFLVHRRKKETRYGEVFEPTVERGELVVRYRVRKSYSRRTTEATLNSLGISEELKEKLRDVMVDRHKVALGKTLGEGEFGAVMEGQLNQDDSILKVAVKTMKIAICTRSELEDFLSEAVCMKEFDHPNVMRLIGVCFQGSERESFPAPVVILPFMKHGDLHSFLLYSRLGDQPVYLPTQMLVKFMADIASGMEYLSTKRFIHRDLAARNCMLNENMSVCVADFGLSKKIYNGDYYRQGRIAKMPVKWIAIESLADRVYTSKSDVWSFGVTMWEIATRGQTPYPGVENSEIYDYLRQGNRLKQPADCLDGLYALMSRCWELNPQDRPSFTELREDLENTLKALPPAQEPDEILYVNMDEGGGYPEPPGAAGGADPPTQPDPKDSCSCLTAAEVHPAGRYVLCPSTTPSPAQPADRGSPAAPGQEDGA
Method: as §1

PAK5, sequence (Q9P286 whole entry): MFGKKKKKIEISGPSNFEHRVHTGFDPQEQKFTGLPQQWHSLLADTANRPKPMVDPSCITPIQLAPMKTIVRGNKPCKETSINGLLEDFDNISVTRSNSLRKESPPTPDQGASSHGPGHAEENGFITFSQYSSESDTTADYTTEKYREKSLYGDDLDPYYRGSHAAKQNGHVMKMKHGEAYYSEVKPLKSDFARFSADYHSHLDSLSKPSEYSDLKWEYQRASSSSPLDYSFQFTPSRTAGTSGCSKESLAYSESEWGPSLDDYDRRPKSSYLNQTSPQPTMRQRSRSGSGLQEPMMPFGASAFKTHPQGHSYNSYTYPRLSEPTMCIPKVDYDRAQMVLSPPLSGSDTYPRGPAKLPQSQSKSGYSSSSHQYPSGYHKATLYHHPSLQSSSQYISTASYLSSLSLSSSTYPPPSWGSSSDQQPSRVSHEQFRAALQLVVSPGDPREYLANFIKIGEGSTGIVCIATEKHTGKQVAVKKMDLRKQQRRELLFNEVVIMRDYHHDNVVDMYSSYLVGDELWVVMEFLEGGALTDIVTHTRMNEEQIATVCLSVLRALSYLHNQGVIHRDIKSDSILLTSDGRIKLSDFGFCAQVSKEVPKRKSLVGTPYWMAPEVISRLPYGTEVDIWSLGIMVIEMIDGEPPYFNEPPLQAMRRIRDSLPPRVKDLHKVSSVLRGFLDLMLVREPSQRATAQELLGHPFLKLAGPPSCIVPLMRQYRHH
CDK4/cyclinD, sequence (P11802 whole entry): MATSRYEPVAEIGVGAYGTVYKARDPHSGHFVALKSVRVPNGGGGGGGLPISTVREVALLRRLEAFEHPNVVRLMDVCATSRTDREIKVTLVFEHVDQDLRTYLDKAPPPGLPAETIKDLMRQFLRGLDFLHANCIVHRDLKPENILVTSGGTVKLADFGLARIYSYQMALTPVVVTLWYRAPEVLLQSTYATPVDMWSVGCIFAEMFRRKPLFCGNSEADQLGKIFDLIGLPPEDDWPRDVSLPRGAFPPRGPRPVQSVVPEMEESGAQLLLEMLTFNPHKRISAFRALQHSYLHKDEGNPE
CDK4/cyclinD, sequence (P24385 whole entry partner): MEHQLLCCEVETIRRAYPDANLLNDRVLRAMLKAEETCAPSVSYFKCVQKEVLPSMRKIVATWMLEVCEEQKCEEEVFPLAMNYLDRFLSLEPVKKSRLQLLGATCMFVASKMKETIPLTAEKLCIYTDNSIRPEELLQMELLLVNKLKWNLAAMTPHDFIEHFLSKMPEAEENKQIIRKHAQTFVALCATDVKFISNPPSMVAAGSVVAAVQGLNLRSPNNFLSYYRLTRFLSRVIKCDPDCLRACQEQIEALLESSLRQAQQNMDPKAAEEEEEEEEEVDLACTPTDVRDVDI
T1 sequence (P36894 24-532 Q233D): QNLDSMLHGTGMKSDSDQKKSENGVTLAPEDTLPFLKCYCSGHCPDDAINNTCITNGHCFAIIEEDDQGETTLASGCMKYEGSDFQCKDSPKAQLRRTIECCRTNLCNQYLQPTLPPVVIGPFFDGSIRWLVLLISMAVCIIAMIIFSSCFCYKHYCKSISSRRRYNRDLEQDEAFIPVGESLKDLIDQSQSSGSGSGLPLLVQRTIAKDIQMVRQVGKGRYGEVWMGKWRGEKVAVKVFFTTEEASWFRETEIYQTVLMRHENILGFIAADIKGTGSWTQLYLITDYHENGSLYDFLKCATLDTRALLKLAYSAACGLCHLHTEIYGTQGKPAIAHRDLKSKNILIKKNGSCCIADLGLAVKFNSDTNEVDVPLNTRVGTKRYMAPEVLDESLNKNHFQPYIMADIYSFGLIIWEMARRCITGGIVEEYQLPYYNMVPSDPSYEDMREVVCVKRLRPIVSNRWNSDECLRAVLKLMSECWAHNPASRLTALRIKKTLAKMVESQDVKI

Row | SMILES | IC50 (caALK3) [nM] | inhibition at 0.1 µM (PAK5) [%] | inhibition at 1 µM (PAK5) [%] | inhibition at 0.1 µM (DYRK1A) [%] | inhibition at 1 µM (DYRK1A) [%] | inhibition at 0.1 µM (PKC-γ) [%] | inhibition at 1 µM (PKC-γ) [%] | inhibition at 0.1 µM (CDK4/cyclinD) [%] | inhibition at 1 µM (CDK4/cyclinD) [%] | inhibition at 0.1 µM (PDK1) [%] | inhibition at 1 µM (PDK1) [%] | inhibition at 0.1 µM (AXL) [%] | inhibition at 1 µM (AXL) [%]
1 | COc1cc(-c2cc(-c3ccc(N4CCNCC4)cc3)cnc2N)cc(OC)c1OC [Compound 15, 5-(4-(piperazin-1-yl)phenyl)-3-(3,4,5-trimethoxyphenyl)pyridin-2-amine] | 8 | 9 | 6 | 2 | 5 | 1 | 4 | 1 | 3 | 3 | 3 | -4 | -1
2 | COc1cc(-c2cc(-c3ccc(N4CCNCC4)cc3)cnc2C)cc(OC)c1OC [Compound 10, 1-(4-(6-methyl-5-(3,4,5-trimethoxyphenyl)pyridin-3-yl)phenyl)piperazine] | 382 | 1 | 1 | 3 | 5 | 3 | 5 | -3 | 2 | 3 | 6 | 1 | 7
